Experimental data as given in patent US20250346569A1, “NEW DERIVATIVES FOR TREATING TRPM3 MEDIATED DISORDERS” (Katholieke Universiteit Leuven, priority 2022, published 2025).

Target: T1, mouse TRPM3α2 (mTRPM3) ion channel (Mus musculus, UniProt J9SQF3)
T1 construct: expressed in transfected cells; host or cells: flip-in HEK293
Experiment: Monitoring the TRPM3 ion channel driven Ca2+ uptake (Fluo-4 AM assay)
Type: cell-based
Conditions: TRPM3 overexpressing flip-in HEK293 cells, channel stimulated with Pregnenolone sulfate (PS) 50 μM
Method: Monitoring the TRPM3 ion channel driven Ca^2+ uptake.
In order to monitor the inhibition of the mouse TRPM3α2 (mTRPM3) ion channel by the compounds of the invention, a cellular system making use of an mTRPM3alpha2 or hTRPM3 overexpressing cell line (flip-in HEK293) was used. The TRPM3 channel was stimulated/opened with Pregnenolone sulfate (PS) (50 μM) which results in Ca^2+ influx.
For mTRPM3, the intracellular Ca^2+ was measured with a Calcium responsive dye, Fluor-4 AM ester (Invitrogen). Cells were cultured until a confluence of 80-90%, washed with Versene (Invitrogen) and detached from the surface by a short incubation with 0.05% Trypsin (Invitrogen). The trypsination process was stopped by the addition of complete cell culture medium (DMEM, glutamax,10% FCS,NEAA,Pen-Strep). Cells were collected and resuspended in Krebs buffer without Calcium at RT.
Prior the cell seeding (±2000 cells/well into a black, 384 well plate (Greiner)) the diluted compound was added in the assay plate, together with the PS dissolved in Krebs buffer containing Calcium. […] Directly after cell addition the plates were read on an Envision fluorescence reader (Perkin Elmer) by an Excitation of 485 nm and emission at 535 nm.
Channel inhibition was calculated compared to a non-PS stimulated control versus a condition stimulated with PS (50 μM) with vehicle. The ability of the compounds of the invention to inhibit this activity was determined as: Percentage inhibition=[1−((RFU determined for sample with test compound present−RFU determined for sample with positive control inhibitor) divided by (RFU determined in the presence of vehicle−RFU determined for sample with positive control inhibitor))]*100.
The activities of the Example compounds tested are depicted in the table below. The activity ranges A, B and C refer to IC50 values in the Fluo-4 AM assay as follows: “A”: IC50<1 μM; “B”: 1 μM≤IC50≤20 μM and “C”: IC50>20 μM

T1 sequence (J9SQF3 1-1709 isoform J9SQF3-12): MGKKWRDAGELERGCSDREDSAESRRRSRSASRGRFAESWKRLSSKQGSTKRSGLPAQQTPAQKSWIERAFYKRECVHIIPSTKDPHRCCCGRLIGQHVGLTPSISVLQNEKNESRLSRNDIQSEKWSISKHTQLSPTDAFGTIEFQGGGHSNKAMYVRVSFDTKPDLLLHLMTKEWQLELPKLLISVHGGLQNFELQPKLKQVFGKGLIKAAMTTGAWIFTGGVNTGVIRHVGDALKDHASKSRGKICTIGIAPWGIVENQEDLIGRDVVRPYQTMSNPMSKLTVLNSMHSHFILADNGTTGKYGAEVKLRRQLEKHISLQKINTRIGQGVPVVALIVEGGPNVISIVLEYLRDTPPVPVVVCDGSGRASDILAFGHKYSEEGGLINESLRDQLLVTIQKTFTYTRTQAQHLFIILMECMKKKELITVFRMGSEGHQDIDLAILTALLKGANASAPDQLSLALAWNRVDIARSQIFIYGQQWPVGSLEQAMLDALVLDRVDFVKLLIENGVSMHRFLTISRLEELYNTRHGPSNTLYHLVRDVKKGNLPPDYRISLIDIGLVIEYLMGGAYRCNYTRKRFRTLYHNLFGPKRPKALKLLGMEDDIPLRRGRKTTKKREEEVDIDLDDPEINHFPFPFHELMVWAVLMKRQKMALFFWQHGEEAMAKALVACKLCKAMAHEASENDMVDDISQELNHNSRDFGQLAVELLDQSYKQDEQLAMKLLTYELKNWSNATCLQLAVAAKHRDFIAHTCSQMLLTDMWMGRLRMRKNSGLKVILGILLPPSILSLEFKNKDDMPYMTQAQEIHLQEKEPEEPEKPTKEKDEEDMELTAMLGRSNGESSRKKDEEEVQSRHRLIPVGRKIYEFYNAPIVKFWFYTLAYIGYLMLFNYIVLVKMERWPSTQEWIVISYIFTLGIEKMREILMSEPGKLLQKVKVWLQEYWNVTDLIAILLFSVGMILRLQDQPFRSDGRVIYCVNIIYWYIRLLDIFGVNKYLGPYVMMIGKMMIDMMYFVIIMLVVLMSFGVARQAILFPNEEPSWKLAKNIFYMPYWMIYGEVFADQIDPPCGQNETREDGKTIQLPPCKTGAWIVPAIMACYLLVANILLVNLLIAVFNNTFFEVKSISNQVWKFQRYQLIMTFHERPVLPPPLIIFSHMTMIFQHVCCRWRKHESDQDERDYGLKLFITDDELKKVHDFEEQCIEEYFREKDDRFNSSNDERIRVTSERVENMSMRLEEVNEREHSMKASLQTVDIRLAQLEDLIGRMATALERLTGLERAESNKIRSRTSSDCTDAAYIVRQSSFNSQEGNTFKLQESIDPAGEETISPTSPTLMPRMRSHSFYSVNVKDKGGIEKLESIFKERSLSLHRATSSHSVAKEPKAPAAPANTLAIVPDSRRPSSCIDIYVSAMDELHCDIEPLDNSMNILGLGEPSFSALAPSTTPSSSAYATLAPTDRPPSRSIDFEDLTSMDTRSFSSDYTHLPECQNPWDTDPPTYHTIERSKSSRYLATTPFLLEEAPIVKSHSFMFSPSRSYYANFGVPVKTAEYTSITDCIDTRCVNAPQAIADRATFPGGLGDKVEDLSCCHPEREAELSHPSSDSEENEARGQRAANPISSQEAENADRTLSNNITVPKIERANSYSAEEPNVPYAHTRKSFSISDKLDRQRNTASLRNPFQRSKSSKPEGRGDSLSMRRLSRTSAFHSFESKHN

| IC50 [µM] | Compound |
| --- | --- |
| 1 to 20 | Cc1sc2ccc(OCc3ccccc3)cc2c1C(=O)NCCN1CCOC1=O [Cpd 106, 5-(benzyloxy)-2-methyl-N-[2-(2-oxo-1,3-oxazolidin-3-yl)ethyl]-1-benzothiophene-3-carboxamide] |
| < 1 | Cc1sc2ccc(OCc3cccnc3C(F)(F)F)cc2c1C(=O)NC1CN(C)CC1(F)F (stereo not drawn) [Cpd 121, N-(4,4-difluoro-1-methylpyrrolidin-3-yl)-2-methyl-5-{[2-(trifluoromethyl)pyridin-3-yl]methoxy}-1-benzothiophene-3-carboxamide] |
| < 1 | Cc1ncc(COc2ccc3sc(C)c(C(=O)NC4(C(N)=O)CCOCC4)c3c2)s1 [Cpd 021, 4-{2-methyl-5-[(2-methyl-1,3-thiazol-5-yl)methoxy]-1-benzothiophene-3-amido}oxane-4-carboxamide] |
| < 1 | Cc1sc2ccc(OCc3cccnc3C(F)(F)F)cc2c1C(=O)NCC(C)(C)O [Cpd 101, N-(2-hydroxy-2-methylpropyl)-2-methyl-5-{[2-(trifluoromethyl)pyridin-3-yl]methoxy}-1-benzothiophene-3-carboxamide] |
| < 1 | Cc1ncsc1COc1ccc2sc(C)c(C(=O)NC3CN(C)CC3(F)F)c2c1 (stereo not drawn) [Cpd 122, N-(4,4-difluoro-1-methylpyrrolidin-3-yl)-2-methyl-5-[(4-methyl-1,3-thiazol-5-yl)methoxy]-1-benzothiophene-3-carboxamide] |
| < 1 | Cc1ncc(COc2ccc3sc(C)c(C(=O)N[C@H](C)C(N)=O)c3c2)s1 [Cpd 005, (2R)-2-({2-methyl-5-[(2-methyl-1,3-thiazol-5-yl)methoxy]-1-benzothiophen-3-yl}formamido)propanamide] |
| < 1 | CNC(=O)c1c(C)sc2ccc(OCc3cccnc3C(F)(F)F)cc12 [Cpd 136, N,2-dimethyl-5-{[2-(trifluoromethyl)pyridin-3-yl]methoxy}-1-benzothiophene-3-carboxamide] |
| 1 to 20 | CN(C)CCNC(=O)c1c(C(F)F)sc2ccc(OCc3ccccc3)cc12 [Cpd 116, 5-(benzyloxy)-2-(difluoromethyl)-N-[2-(dimethylamino)ethyl]-1-benzothiophene-3-carboxamide] |
| < 1 | Cc1sc2ccc(OCc3ccccc3)cc2c1C(=O)NC1CCOC1 (stereo not drawn) [Cpd 096, 5-(benzyloxy)-2-methyl-N-(oxolan-3-yl)-1-benzothiophene-3-carboxamide] |
| < 1 | Cc1ncsc1COc1ccc2sc(C)c(C(=O)NC3(CO)CCOCC3)c2c1 [Cpd 036, N-[4-(hydroxymethyl)oxan-4-yl]-2-methyl-5-[(4-methyl-1,3-thiazol-5-yl)methoxy]-1-benzothiophene-3-carboxamide] |
| < 1 | Cc1sc2ccc(OCc3ccccn3)cc2c1C(=O)N[C@@H](C)C(N)=O [Cpd 008, (2S)-2-({2-methyl-5-[(pyridin-2-yl)methoxy]-1-benzothiophen-3-yl}formamido)propanamide] |
| < 1 | Cc1ncsc1COc1ccc2sc(C)c(C(=O)NC3CCNC3=O)c2c1 (stereo not drawn) [Cpd 041, 2-methyl-5-[(4-methyl-1,3-thiazol-5-yl)methoxy]-N-(2-oxopyrrolidin-3-yl)-1-benzothiophene-3-carboxamide] |
| 1 to 20 | Cc1ncc(COc2ccc3sc(C)c(C(=O)NC4(CO)CCOCC4)c3c2)s1 [Cpd 024, N-[4-(hydroxymethyl)oxan-4-yl]-2-methyl-5-[(2-methyl-1,3-thiazol-5-yl)methoxy]-1-benzothiophene-3-carboxamide] |
| < 1 | Cc1sc2ccc(OCc3ccccn3)cc2c1C(=O)NC1(C(N)=O)COC1 [Cpd 088, 3-{2-methyl-5-[(pyridin-2-yl)methoxy]-1-benzothiophene-3-amido}oxetane-3-carboxamide] |
| < 1 | Cc1ncsc1COc1ccc2sc(C)c(C(=O)N[C@H]3CCN(CCO)C3=O)c2c1 [Cpd 030, N-[(3S)-1-(2-hydroxyethyl)-2-oxopyrrolidin-3-yl]-2-methyl-5-[(4-methyl-1,3-thiazol-5-yl)methoxy]-1-benzothiophene-3-carboxamide] |
| 1 to 20 | Cc1sc2ccc(OCc3ccccn3)cc2c1C(=O)NC1(CO)CC1 [Cpd 075, N-[1-(hydroxymethyl)cyclopropyl]-2-methyl-5-[(pyridin-2-yl)methoxy]-1-benzothiophene-3-carboxamide] |
| < 1 | Cc1sc2ccc(OCc3ccccn3)cc2c1C(=O)N[C@H](C)C(N)=O [Cpd 003, (2R)-2-({2-methyl-5-[(pyridin-2-yl)methoxy]-1-benzothiophen-3-yl}formamido)propanamide] |

| IC50 [µM] | Compound |
| --- | --- |
| > 20 | CNC(=O)c1c(C(F)F)sc2ccc(OCc3ccccc3)cc12 [Cpd 135, 5-(benzyloxy)-2-(difluoromethyl)-N-methyl-1-benzothiophene-3-carboxamide] |
| 1 to 20 | O=C(NC1CCOC1)c1c(C(F)F)sc2ccc(OCc3ccccc3)cc12 (stereo not drawn) [Cpd 147, 5-(benzyloxy)-2-(difluoromethyl)-N-(oxolan-3-yl)-1-benzothiophene-3-carboxamide] |
| < 1 | Cc1sc2ccc(OCc3ccccc3F)cc2c1C(=O)N[C@H](C)C(N)=O [Cpd 002, (2R)-2-({5-[(2-fluorophenyl)methoxy]-2-methyl-1-benzothiophen-3-yl}formamido)propanamide] |
| < 1 | COc1ncccc1COc1ccc2sc(C)c(C(=O)N[C@@H](CO)C(N)=O)c2c1 [Cpd 139, (2S)-3-hydroxy-2-({5-[(2-methoxypyridin-3-yl)methoxy]-2-methyl-1-benzothiophen-3-yl}formamido)propanamide] |
| < 1 | Cc1sc2ccc(OCc3cccnc3C(F)(F)F)cc2c1C(=O)N[C@H](C)C(N)=O [Cpd 004, (2R)-2-[(2-methyl-5-{[2-(trifluoromethyl)pyridin-3-yl]methoxy}-1-benzothiophen-3-yl)formamido]propanamide] |
| 1 to 20 | Cc1sc2ccc(OCc3ccccc3)cc2c1C(=O)NCCN(C)C [Cpd 115, 5-(benzyloxy)-N-[2-(dimethylamino)ethyl]-2-methyl-1-benzothiophene-3-carboxamide] |
| < 1 | Cc1sc2ccc(OCc3cccnc3C(F)(F)F)cc2c1C(=O)NC(C)(C)C(N)=O [Cpd 065, 2-methyl-2-[(2-methyl-5-{[2-(trifluoromethyl)pyridin-3-yl]methoxy}-1-benzothiophen-3-yl)formamido]propanamide] |
| < 1 | Cc1ncc(COc2ccc3sc(C)c(C(=O)NC(C)(CO)C(N)=O)c3c2)s1 (single isomer, unassigned) [Cpd 019 - En1, 3-hydroxy-2-methyl-2-({2-methyl-5-[(2-methyl-1,3-thiazol-5-yl)methoxy]-1-benzothiophen-3-yl}formamido)propanamide] |
| < 1 | Cc1ncsc1COc1ccc2sc(C)c(C(=O)NC3(CO)CCC3)c2c1 [Cpd 035, N-[1-(hydroxymethyl)cyclobutyl]-2-methyl-5-[(4-methyl-1,3-thiazol-5-yl)methoxy]-1-benzothiophene-3-carboxamide] |
| < 1 | Cc1nc(COc2ccc3sc(C)c(C(=O)NC(C)(CO)C(N)=O)c3c2)cs1 (single isomer, unassigned) [Cpd 015 - En1, 3-hydroxy-2-methyl-2-({2-methyl-5-[(2-methyl-1,3-thiazol-4-yl)methoxy]-1-benzothiophen-3-yl}formamido)propanamide] |
| < 1 | Cc1sc2ccc(OCc3ccccc3F)cc2c1C(=O)NC1(CO)COC1 [Cpd 085, 5-[(2-fluorophenyl)methoxy]-N-[3-(hydroxymethyl)oxetan-3-yl]-2-methyl-1-benzothiophene-3-carboxamide] |
| < 1 | Cc1sc2ccc(OCc3ccccc3F)cc2c1C(=O)NC(C)(C)C(N)=O [Cpd 063, 2-({5-[(2-fluorophenyl)methoxy]-2-methyl-1-benzothiophen-3-yl}formamido)-2-methylpropanamide] |
| < 1 | CNC(=O)C1(NC(=O)c2c(C)sc3ccc(OCc4cnc(C)s4)cc23)CCOC1 (single isomer, unassigned) [Cpd 133 - En2, N-methyl-3-{2-methyl-5-[(2-methyl-1,3-thiazol-5-yl)methoxy]-1-benzothiophene-3-amido}oxolane-3-carboxamide] |
| < 1 | Cc1ncc(COc2ccc3sc(C)c(C(=O)NC4(C(N)=O)CCOC4)c3c2)s1 (stereo not drawn) [Cpd 020, 3-{2-methyl-5-[(2-methyl-1,3-thiazol-5-yl)methoxy]-1-benzothiophene-3-amido}oxolane-3-carboxamide] |
| < 1 | Cc1sc2ccc(OCc3cccnc3C(F)(F)F)cc2c1C(=O)NC1(CO)CC1 [Cpd 076, N-[1-(hydroxymethyl)cyclopropyl]-2-methyl-5-{[2-(trifluoromethyl)pyridin-3-yl]methoxy}-1-benzothiophene-3-carboxamide] |
| < 1 | Cc1sc2ccc(OCc3cccnc3C(F)(F)F)cc2c1C(=O)N[C@@H](CO)C(N)=O [Cpd 053, (2S)-3-hydroxy-2-[(2-methyl-5-{[2-(trifluoromethyl)pyridin-3-yl]methoxy}-1-benzothiophen-3-yl)formamido]propanamide] |
